Test results published in patent US20250002455A1, “NEW N-PHENYLPYRROLAMIDE INHIBITORS OF DNA GYRASE AND TOPOISOMERASE IV WITH ANTIBACTERIAL ACTIVITY” (priority 2020, published 2025).
Read-outs that look alike come from different tables or passages of the source.

Key:
[1] = molecular target: T1, E. coli topoisomerase IV (Escherichia coli, UniProt P20083); assay: biochemical
T1 construct: purchased Inspiralis
Protocol: (§1) Inhibitory activities for compounds of the present invention were determined on E. coli and S. aureus DNA gyrase and topoisomerase IV in an assay from Inspiralis on streptavidin-coated 96-well microtiter plates from Thermo scientific Pierce. […] After washing off the unbound oligonucleotide, the enzyme test was performed. […] Reaction solutions were incubated at 37° C. for 30 min. After that, the TF buffer (50 mM NaOAc with pH 5.0, 50 mM NaCl and 50 mM MgCl2) was added to terminate the enzymatic reaction. After additional incubation for 30 min at rt, during which biotin-oligonucleotide-plasmid triplex was formed, the unbound plasmid was washed off using TF buffer and SybrGOLD in T10 buffer (10 mM Tris HCl with pH 8.0 and 1 mM EDTA) was added. […] Initial screening was done at 100 or 10 nM concentration of inhibitors against E. coli DNA gyrase or 1 μM or 100 nM concentration against S. aureus DNA gyrase and E. coli and S. aureus topo IV. […] GraphPad Prism 6.0 software was used to calculate the IC50 values. The result is given as the average value of three independent measurements. […] Chemoth.

[2] = tested on: K. pneumoniae ATCC 10031; assay: Microbroth dilution MIC (CLSI); assay type: cell-based; conditions: Klebsiella pneumoniae, ATCC10031
Protocol: (§2) The chemical entities described in the present invention were assessed for their antimicrobial activity using a microbroth dilution assay as recommended by the CLSI (Methods for Dilution Antimicrobial Susceptibility Tests for Bacteria That Grow Aerobically, and Methods for Antimicrobial Susceptibility Testing of Anaerobic Bacteria, Clinical and Laboratory Standards Institute, Document M07-A8, and M11-A8, Wayne, PA 19087, USA, 2012.). Compounds were dissolved by using 100% DMSO. Serial two-fold dilutions of each compound were made by using 100% DMSO as the diluent.
(§3) A library of Gram-negative and Gram-positive microbes and their drug- and multidrug-resistant variants were employed as test organisms. The MIC (minimum inhibitory concentration) was determined as the lowest concentration of an individual drug that lead to no visible growth.

[3] = tested on: E. faecium ATCC 700221; assay: Microbroth dilution MIC (CLSI); assay type: cell-based; conditions: Enterococcus faecium, ATCC700221
Protocol: as §2, §3

[4] = tested on: S. aureus ATCC 43300 (MRSA); assay: Microbroth dilution MIC (CLSI); assay type: cell-based; conditions: Staphylococcus aureus
Protocol: as §2, §3

[5] = tested on: S. aureus ATCC 700699 (VISA); assay: Microbroth dilution MIC (CLSI); assay type: cell-based; conditions: Staphylococcus aureus
Protocol: as §2, §3

[6] = tested on: E. faecalis ATCC 29212; assay: Microbroth dilution MIC (CLSI); assay type: cell-based; conditions: Enterococcus faecalis, ATCC29212
Protocol: as §2, §3

[7] = tested on: S. aureus ATCC 29213; assay: Microbroth dilution MIC (CLSI); assay type: cell-based; conditions: Staphylococcus aureus, ATCC29213
Protocol: as §2, §3

[8] = tested on: A. baumannii ATCC 17978; assay: Microbroth dilution MIC (CLSI); assay type: cell-based; conditions: Acinetobacter baumannii, ATCC17978
Protocol: as §2, §3

[9] = tested on: E. coli ATCC 25922; assay: Microbroth dilution MIC (CLSI); assay type: cell-based; conditions: Escherichia coli, ATCC25922
Protocol: as §2, §3

[10] = tested on: P. aeruginosa ATCC 27853; assay: Microbroth dilution MIC (CLSI); assay type: cell-based; conditions: Pseudomonas aeruginosa, ATCC27853
Protocol: as §2, §3

[11] = tested on: E. spp. cloacae ATCC 13047; assay: Microbroth dilution MIC (CLSI); assay type: cell-based; conditions: Enterobacter cloacae, ATCC13047
Protocol: as §2, §3

[12] = molecular target: T2, E. coli DNA gyrase (Escherichia coli, UniProt P0AES6); assay: biochemical
T2 construct: purchased Inspiralis
Protocol: (§4) Inhibitory activities for compounds of the present invention were determined on E. coli and S. aureus DNA gyrase and topoisomerase IV in an assay from Inspiralis on streptavidin-coated 96-well microtiter plates from Thermo scientific Pierce. […] After washing off the unbound oligonucleotide, the enzyme test was performed. […] Reaction solutions were incubated at 37° C. for 30 min. After that, the TF buffer (50 mM NaOAc with pH 5.0, 50 mM NaCl and 50 mM MgCl2) was added to terminate the enzymatic reaction. After additional incubation for 30 min at rt, during which biotin-oligonucleotide-plasmid triplex was formed, the unbound plasmid was washed off using TF buffer and SybrGOLD in T10 buffer (10 mM Tris HCl with pH 8.0 and 1 mM EDTA) was added. […] GraphPad Prism 6.0 software was used to calculate the IC50 values. The result is given as the average value of three independent measurements. […] Chemoth.

[13] = molecular target: T3, S. aureus DNA gyrase (Staphylococcus aureus, UniProt P0A0K8); assay: biochemical
T3 construct: purchased Inspiralis
T3 sequence (P20831 whole entry): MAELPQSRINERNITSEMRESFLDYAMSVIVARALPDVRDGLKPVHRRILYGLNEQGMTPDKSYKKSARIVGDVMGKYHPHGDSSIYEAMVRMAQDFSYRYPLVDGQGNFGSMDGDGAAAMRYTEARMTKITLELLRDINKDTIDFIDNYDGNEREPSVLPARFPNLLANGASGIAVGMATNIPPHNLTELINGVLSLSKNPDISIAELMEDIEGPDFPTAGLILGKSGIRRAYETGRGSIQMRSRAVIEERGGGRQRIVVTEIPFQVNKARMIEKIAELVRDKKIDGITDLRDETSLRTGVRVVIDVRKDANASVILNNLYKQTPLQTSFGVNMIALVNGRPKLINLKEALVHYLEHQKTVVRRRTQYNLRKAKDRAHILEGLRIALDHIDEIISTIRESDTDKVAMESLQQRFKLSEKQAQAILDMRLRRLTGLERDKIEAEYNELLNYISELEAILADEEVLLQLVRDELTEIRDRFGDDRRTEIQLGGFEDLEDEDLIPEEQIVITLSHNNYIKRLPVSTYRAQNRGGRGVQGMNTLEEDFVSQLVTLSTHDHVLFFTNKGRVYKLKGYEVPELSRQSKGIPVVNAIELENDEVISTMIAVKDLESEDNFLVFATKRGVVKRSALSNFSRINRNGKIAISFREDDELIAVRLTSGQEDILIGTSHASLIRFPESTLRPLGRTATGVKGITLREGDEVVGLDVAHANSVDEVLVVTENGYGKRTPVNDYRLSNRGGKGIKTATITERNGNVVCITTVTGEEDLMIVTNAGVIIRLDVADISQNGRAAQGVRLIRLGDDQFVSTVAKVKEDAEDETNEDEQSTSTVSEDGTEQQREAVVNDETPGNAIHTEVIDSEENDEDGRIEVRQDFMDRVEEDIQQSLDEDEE
T3 sequence (P0A0K8 whole entry): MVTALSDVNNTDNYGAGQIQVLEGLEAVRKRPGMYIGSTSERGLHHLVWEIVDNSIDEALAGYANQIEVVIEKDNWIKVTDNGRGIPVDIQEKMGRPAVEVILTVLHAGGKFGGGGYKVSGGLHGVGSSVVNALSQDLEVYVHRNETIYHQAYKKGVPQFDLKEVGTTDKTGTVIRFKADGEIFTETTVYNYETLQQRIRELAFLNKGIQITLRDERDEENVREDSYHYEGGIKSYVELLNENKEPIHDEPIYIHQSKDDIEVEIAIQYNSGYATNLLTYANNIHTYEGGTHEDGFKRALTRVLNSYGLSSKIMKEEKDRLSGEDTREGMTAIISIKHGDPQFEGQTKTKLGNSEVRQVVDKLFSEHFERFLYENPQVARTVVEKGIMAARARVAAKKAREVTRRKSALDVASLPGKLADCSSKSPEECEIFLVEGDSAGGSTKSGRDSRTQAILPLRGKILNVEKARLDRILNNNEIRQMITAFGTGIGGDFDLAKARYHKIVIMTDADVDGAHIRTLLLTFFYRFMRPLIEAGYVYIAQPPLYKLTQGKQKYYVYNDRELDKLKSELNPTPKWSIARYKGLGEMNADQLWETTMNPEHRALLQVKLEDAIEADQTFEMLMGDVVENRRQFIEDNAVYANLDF
Protocol: as §4

[14] = molecular target: T4, S. aureus topoisomerase IV (Staphylococcus aureus, UniProt P0C1S7); assay: Topoisomerase IV inhibition assay (Inspiralis, streptavidin-coated plates); assay type: biochemical; conditions: S. aureus topo IV, read-out: RA (residual activity of the enzyme)
T4 construct: purchased Inspiralis
T4 sequence (P0C1U9 whole entry): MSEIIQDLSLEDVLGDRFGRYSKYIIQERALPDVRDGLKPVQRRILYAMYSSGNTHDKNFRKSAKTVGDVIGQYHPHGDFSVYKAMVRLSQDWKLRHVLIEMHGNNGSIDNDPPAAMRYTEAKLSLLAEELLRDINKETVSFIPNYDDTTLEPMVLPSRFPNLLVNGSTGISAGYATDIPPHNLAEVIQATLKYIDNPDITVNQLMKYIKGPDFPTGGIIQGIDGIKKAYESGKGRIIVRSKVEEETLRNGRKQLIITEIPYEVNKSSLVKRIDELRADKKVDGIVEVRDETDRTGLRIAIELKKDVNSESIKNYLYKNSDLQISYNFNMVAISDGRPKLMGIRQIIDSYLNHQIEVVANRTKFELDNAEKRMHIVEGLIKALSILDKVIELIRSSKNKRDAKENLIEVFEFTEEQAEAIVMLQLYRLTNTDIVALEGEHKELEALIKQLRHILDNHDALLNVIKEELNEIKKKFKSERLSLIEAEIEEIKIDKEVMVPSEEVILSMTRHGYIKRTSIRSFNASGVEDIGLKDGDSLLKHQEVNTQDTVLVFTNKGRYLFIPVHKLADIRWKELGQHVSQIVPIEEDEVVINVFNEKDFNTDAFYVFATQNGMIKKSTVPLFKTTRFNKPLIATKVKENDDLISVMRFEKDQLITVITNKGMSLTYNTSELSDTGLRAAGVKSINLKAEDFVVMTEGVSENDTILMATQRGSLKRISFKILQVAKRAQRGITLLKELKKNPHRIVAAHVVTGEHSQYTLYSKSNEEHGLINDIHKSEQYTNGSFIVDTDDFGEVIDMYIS
T4 sequence (P0C1S7 whole entry): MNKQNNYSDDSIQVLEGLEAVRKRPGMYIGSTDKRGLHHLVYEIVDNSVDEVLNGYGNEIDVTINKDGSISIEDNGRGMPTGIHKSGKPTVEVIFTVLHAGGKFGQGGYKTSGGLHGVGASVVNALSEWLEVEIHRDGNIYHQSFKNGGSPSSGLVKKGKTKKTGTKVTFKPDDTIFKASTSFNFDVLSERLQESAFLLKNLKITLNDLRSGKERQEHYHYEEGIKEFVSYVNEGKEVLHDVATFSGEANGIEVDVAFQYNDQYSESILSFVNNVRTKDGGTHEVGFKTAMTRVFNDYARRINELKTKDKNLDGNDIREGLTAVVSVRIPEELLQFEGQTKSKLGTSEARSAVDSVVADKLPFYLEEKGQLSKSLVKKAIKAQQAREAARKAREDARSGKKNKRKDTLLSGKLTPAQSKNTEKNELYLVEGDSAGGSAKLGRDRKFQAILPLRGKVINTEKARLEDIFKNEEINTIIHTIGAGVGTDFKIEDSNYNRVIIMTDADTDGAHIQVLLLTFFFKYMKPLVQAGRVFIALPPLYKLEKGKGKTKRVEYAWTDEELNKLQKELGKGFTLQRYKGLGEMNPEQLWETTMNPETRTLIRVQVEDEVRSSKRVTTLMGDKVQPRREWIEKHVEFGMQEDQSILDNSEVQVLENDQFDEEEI
Protocol: as §1

[15] = tested on: E. aerogenes (ATCC 13408); assay: Microbroth dilution MIC (CLSI); assay type: cell-based, Enterobacter aerogenes; conditions: Klebsiella aerogenes, ATCC13408; E. aerogenes (ATCC 13408); read-out: MIC
Protocol: as §2, §3

[16] = tested on: E. faecium (ATCC 35667); assay: Microbroth dilution MIC (CLSI); assay type: cell-based; conditions: Enterococcus faecium, ATCC35667; E. faecium (ATCC 35667); read-out: MIC
Protocol: as §2, §3

[17] = tested on: A. baumannii (ATCC 19606); assay: Microbroth dilution MIC (CLSI); assay type: cell-based; conditions: Acinetobacter baumannii, ATCC19606; A. baumannii (ATCC 19606); read-out: MIC
Protocol: as §2, §3

[18] = tested on: K. pneumoniae (ATCC 700603); assay: Microbroth dilution MIC (CLSI); assay type: cell-based; conditions: Klebsiella pneumoniae, ATCC700603; K. pneumoniae (ATCC 700603); read-out: MIC
Protocol: as §2, §3

[19] = E. coli DNA gyrase, read-out: IC50
[20] = S. aureus ATCC 29213, read-out: MIC
[21] = E. coli ATCC 25922, read-out: MIC
[22] = P. aeruginosa ATCC 27853, read-out: MIC

T1 sequence (P0AFI2 whole entry): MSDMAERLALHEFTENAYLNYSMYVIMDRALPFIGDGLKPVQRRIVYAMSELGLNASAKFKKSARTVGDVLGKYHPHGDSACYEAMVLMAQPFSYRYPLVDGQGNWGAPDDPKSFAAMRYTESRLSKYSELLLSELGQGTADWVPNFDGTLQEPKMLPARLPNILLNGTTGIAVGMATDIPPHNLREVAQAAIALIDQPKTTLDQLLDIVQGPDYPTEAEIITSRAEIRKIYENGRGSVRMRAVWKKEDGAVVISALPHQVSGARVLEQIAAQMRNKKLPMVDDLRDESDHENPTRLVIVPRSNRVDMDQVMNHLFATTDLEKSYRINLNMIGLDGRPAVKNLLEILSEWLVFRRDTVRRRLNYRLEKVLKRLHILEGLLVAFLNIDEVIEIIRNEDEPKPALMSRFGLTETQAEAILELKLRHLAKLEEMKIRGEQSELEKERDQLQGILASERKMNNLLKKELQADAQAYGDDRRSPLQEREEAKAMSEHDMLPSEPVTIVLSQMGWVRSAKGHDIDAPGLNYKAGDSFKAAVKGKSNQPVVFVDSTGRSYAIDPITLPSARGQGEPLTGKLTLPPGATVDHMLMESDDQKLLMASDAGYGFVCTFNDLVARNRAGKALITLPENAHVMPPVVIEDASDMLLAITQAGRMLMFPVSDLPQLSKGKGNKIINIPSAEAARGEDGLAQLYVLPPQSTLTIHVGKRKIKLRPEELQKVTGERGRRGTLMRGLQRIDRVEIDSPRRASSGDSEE
T1 sequence (P20083 whole entry): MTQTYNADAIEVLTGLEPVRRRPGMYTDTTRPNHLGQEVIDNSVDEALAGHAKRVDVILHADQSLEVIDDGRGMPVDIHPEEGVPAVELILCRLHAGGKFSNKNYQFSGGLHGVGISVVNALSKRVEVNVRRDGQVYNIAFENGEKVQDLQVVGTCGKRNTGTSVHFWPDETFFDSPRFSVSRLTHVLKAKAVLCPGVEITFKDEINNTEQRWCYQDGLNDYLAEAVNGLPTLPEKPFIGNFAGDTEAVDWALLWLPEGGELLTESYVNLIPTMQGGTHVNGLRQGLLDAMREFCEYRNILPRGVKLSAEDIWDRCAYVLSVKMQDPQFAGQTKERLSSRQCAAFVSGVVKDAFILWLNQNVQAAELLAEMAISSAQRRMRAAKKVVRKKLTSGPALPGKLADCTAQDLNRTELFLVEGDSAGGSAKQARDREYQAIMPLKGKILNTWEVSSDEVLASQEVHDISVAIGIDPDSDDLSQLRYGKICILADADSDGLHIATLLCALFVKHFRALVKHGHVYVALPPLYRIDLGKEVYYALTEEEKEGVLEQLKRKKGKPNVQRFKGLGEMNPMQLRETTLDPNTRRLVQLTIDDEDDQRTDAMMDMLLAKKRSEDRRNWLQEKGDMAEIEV

Question: With `Cc1[nH]c(C(=O)Nc2ccc(-c3noc(=O)[nH]3)cc2NC2CCNCC2)c(Cl)c1Cl.Cl` [Example 4, 4-((2-(3,4-Dichloro-5-methyl-1H-pyrrole-2-carboxamido)-5-(5-oxo-4,5-dihydro-1,2,4-oxadiazol-3-yl)phenyl)amino)piperidin-1-ium chloride] as the compound, how does the IC50 [1] read?
Answer: Its IC50 is 1180 nM.

Question: What about the MIC [2] of the same compound?
Answer: The MIC was > 64 µg/mL.

Question: What about the MIC [3] of the same compound?
Answer: The MIC was > 64 µg/mL.

Question: And the MIC [4]?
Answer: Its MIC is > 64 µg/mL.

Question: And the MIC [5]?
Answer: Its MIC is > 64 µg/mL.

Question: And the MIC [6]?
Answer: The MIC was > 64 µg/mL.

Question: And the MIC [7]?
Answer: The MIC was > 64 µg/mL.

Question: What about the MIC [8] of the same compound?
Answer: The MIC was > 64 µg/mL.

Question: What about the MIC [9] of the same compound?
Answer: The MIC was > 64 µg/mL.

Question: What about the MIC [10] of the same compound?
Answer: The MIC was > 64 µg/mL.

Question: And the MIC [11]?
Answer: The MIC was > 64 µg/mL.

Question: And the IC50 [12]?
Answer: The IC50 was 9.66 nM.

Question: And the IC50 [13]?
Answer: The IC50 was 249 nM.

Question: Which remaining activity at 0.1 µM ([14]; 0.1 μM compound) does the source give for `Cc1[nH]c(C(=O)Nc2ccc(-c3noc(=O)[nH]3)cc2N2CCOCC2)c(Cl)c1Cl` [Example 8, 3,4-Dichloro-5-methyl-N-(2-morpholino-4-(5-oxo-4,5-dihydro-1,2,4-oxadiazol-3-yl)phenyl)-1H-pyrrole-2-carboxamide] here?
Answer: Its remaining activity at 0.1 µM is 51%.

Question: And the remaining activity at 1 µM ([14]; 1 μM compound)?
Answer: The remaining activity at 1 µM was 10%.

Question: And the IC50 [12, 19]?
Answer: The IC50 was 13 nM.

Question: With `Cc1[nH]c(C(=O)Nc2ccc(-c3nn[nH]n3)cc2N2CCCC(CN)C2)c(Cl)c1Cl.Cl` (centres unmarked) [Example 9, (1-(2-(3,4-Dichloro-5-methyl-1H-pyrrole-2-carboxamido)-5-(2H-tetrazol-5-yl)phenyl)piperidin-3-yl)methanaminium chloride] as the compound, how does the IC50 ([1]; E. coli topo IV, read-out: IC50) read?
Answer: The IC50 was 60.3 nM.

Question: What about the MIC ([2]; K. pneumoniae ATCC 10031, read-out: MIC) of the same compound?
Answer: Its MIC is 64 µg/mL.

Question: And the MIC ([3]; E. faecium ATCC 700221, read-out: MIC)?
Answer: The MIC was 16 µg/mL.

Question: And the MIC ([4]; S. aureus ATCC 43300 (MRSA), read-out: MIC)?
Answer: Its MIC is > 64 µg/mL.

Question: What about the MIC ([5]; S. aureus ATCC 700699 (VISA), read-out: MIC) of the same compound?
Answer: Its MIC is > 64 µg/mL.

Question: What about the MIC ([6]; E. faecalis ATCC 29212, read-out: MIC) of the same compound?
Answer: Its MIC is 8 µg/mL.

Question: And the MIC [7, 20]?
Answer: Its MIC is 16 µg/mL.

Question: And the MIC ([8]; A. baumannii ATCC 17978, read-out: MIC)?
Answer: The MIC was > 64 µg/mL.

Question: What about the MIC [9, 21] of the same compound?
Answer: The MIC was > 64 µg/mL.

Question: What about the MIC [10, 22] of the same compound?
Answer: Its MIC is > 64 µg/mL.

Question: And the MIC ([11]; E. spp. cloacae ATCC 13047, read-out: MIC)?
Answer: Its MIC is > 64 µg/mL.

Question: What about the IC50 [12, 19] of the same compound?
Answer: The IC50 was 2.16 nM.

Question: And the IC50 ([13]; S. aureus DNA gyrase, read-out: IC50)?
Answer: Its IC50 is 35 nM.

Question: How did the MIC [15] turn out when `Cc1[nH]c(C(=O)Nc2ccc(C(=O)O)cc2N2CCC[C@H](N)C2)c(Cl)c1Cl.Cl` [Example 14, (S)-1-(5-carboxy-2-(3,4-dichloro-5-methyl-1H-pyrrole-2-carboxamido)phenyl)piperidin-3-aminium chloride] was run?
Answer: The MIC was ≥ 64 µg/mL.

Question: And the MIC [16]?
Answer: Its MIC is ≥ 64 µg/mL.

Question: What about the MIC [17] of the same compound?
Answer: Its MIC is ≥ 64 µg/mL.

Question: What about the MIC [7, 20] of the same compound?
Answer: The MIC was ≥ 64 µg/mL.

Question: What about the MIC [9, 21] of the same compound?
Answer: The MIC was ≥ 64 µg/mL.

Question: What about the MIC [18] of the same compound?
Answer: Its MIC is ≥ 64 µg/mL.

Question: And the MIC [10, 22]?
Answer: The MIC was ≥ 64 µg/mL.

Question: What about the remaining activity at 0.1 µM ([12]; E. coli DNA gyrase, 0.1 μM compound, read-out: RA (residual activity of the enzyme)) of the same compound?
Answer: The remaining activity at 0.1 µM was 52%.

Question: And the remaining activity at 1 µM ([12]; E. coli DNA gyrase, 1 μM compound, read-out: RA (residual activity of the enzyme))?
Answer: Its remaining activity at 1 µM is -2%.
